{"source": "patent US7576062B2", "about": "“Compounds with growth hormone releasing properties” (Novo Nordisk A/S, priority 1998, dated 2009)", "key": {"[1]": {"tested_on": "trypsin, chymotrypsin and elastase", "assay": "Metabolic stability in pancreatic enzyme mix (ESMS, SIM of molecular ion)", "format": "in vitro ADME", "conditions": "0.025 mg/ml, 100 mM ammoniumbicarbonate pH 8.0, 37° C., 24 h in degradation solution, enzyme:substrate approx. 1:5", "experimental": "(§1) The solution is left at 37° C. overnight.\n(§2) Identification of degradation products furthermore involved the use of plasma desorption mass spectrometry (PDMS) with sample application on nitrocellulose coated targets and standard instrumental settings. The accuracy of the hereby determined masses is generally better than 0.1%.\n(§3) Separation and isolation of degradation products was done using a HY-TACH C-18 reverse phase 4.6×105 mm HPLC column (Hewlett-Packard Company, Palo Alto, Calif.) with a standard acetonitril: TFA separation gradient. The HPLC system used was HP1090M (Hewlett-Packard Company, Palo Alto, Calif.)."}, "carboxypeptidase Y and B": {"tested_on": "carboxypeptidase Y and B", "assay": "Metabolic stability in carboxypeptidase mix (ESMS, SIM of molecular ion)", "format": "in vitro ADME", "conditions": "0.025 mg/ml, 50 mM ammoniumacetate pH 4.5, 37° C., 24 h in degradation solution, enzyme:substrate approx. 1:5", "experimental": "as §1, §2, §3"}}}
{"substance": "Glucagon", "values": [{"measurement": "Pan. enzyme mix (stability)", "setting": "[1]", "result": "− (Unstable (more than 20% decrease in SIM signal after 24 h in degradation solution))"}, {"measurement": "Carboxy-peptidase mix (stability)", "setting": "carboxypeptidase Y and B", "result": "− (Unstable (more than 20% decrease in SIM signal after 24 h in degradation solution))"}]}
